Assay results published in PubChem BioAssay (NCI).
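Here, GI50 denotes the concentration required for 50% inhibition of growth. TGI marks complete inhibition of growth.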

Tests used:
Experiment in all cases: inhibition of tumour cell growth, NCI panel, 384-well format
[1] = tested on: 786-0 renal
[2] = tested on: A498 renal
[3] = tested on: A549 NSCLC
[4] = tested on: ACHN renal
[5] = tested on: BT-549 breast
[6] = tested on: CAKI-1 renal
[7] = tested on: CCRF-CEM leukemia
[8] = tested on: COLO 205 colon
[9] = tested on: DU-145 prostate
[10] = tested on: EKVX NSCLC
[11] = tested on: HCC-2998 colon
[12] = tested on: HCT-116 colon
[13] = tested on: HCT-15 colon
[14] = tested on: HOP-62 NSCLC
[15] = tested on: HOP-92 NSCLC
[16] = tested on: HS 578T breast
[17] = tested on: HT29 colon
[18] = tested on: IGROV1 ovarian
[19] = tested on: K-562 leukemia
[20] = tested on: KM12 colon
[21] = tested on: LOX IMVI melanoma
[22] = tested on: M14 melanoma
[23] = tested on: MALME-3M melanoma
[24] = tested on: MCF7 breast
[25] = tested on: MDA-MB-231 breast
[26] = tested on: MDA-MB-435 melanoma
[27] = tested on: MDA-MB-468 breast
[28] = tested on: MOLT-4 leukemia
[29] = tested on: NCI-H226 lung
[30] = tested on: NCI-H23 lung
[31] = tested on: NCI-H322M lung
[32] = tested on: NCI-H460 NSCLC
[33] = tested on: NCI-H522 lung
[34] = tested on: NCI/ADR-RES ovarian
[35] = tested on: OVCAR-3 ovarian
[36] = tested on: OVCAR-4 ovarian
[37] = tested on: OVCAR-5 ovarian
[38] = tested on: OVCAR-8 ovarian
[39] = tested on: PC-3 prostate
[40] = tested on: RPMI-8226 leukemia
[41] = tested on: RXF 393 renal
[42] = tested on: SF-268 CNS
[43] = tested on: SF-295 CNS
[44] = tested on: SF-539 CNS
[45] = tested on: SK-MEL-28 melanoma
[46] = tested on: SK-MEL-5 melanoma
[47] = tested on: SK-OV-3 ovarian
[48] = tested on: SN12C renal
[49] = tested on: SNB-19 CNS
[50] = tested on: SNB-75 CNS
[51] = tested on: SW-620 colon
[52] = tested on: T-47D breast
[53] = tested on: TK-10 renal
[54] = tested on: U251 glioblastoma
[55] = tested on: UACC-257 melanoma
[56] = tested on: UACC-62 melanoma
[57] = tested on: UO-31 renal
[58] = tested on: SK-MEL-2 melanoma

`Cn1c(=O)c(F)c(Nc2ccc(I)cc2F)c2c(=O)n(C[C@@H](O)CO)cnc21` showed a GI50 [1] of 1620 nM, a TGI [1] of 17900 nM and a GI50 [2] of 268 nM. It also gave a TGI [2] of 12600 nM, a GI50 [3] of less than 10 nM and a TGI [3] of 9910 nM. It also gave a GI50 [4] of 1090 nM, a TGI [4] of 26900 nM and a GI50 [5] of 2390 nM. The TGI [5] was 23500 nM, the GI50 [6] was 13.3 nM and the TGI [6] was 19200 nM. The GI50 [7] was 10600 nM, the TGI [7] was 22800 nM and the GI50 [8] was less than 10 nM. For the same molecule, the TGI [8] was less than 10 nM, the GI50 [9] was 1990 nM and the TGI [9] was 36700 nM. For the same molecule, the GI50 [10] was 2080 nM, the TGI [10] was 25500 nM and the GI50 [11] was less than 10 nM. For the same molecule, the TGI [11] was 12.8 nM, the GI50 [12] was less than 10 nM and the TGI [12] was 164 nM. It also gave a GI50 [13] of 466 nM, a TGI [13] of 19600 nM and a GI50 [14] of less than 10 nM. For the same molecule, the TGI [14] was 25200 nM, the GI50 [15] was less than 10 nM and the TGI [15] was 179 nM. It also gave a GI50 [16] of 184 nM, a TGI [16] of 11000 nM and a GI50 [17] of less than 10 nM. The TGI [17] was 11600 nM, the GI50 [18] was less than 10 nM and the TGI [18] was 1110 nM. The GI50 [19] was 11 nM, the TGI [19] was 15500 nM and the GI50 [20] was less than 10 nM. For the same molecule, the TGI [20] was 13600 nM, the GI50 [21] was less than 10 nM and the TGI [21] was 137 nM. For the same molecule, the GI50 [22] was less than 10 nM, the TGI [22] was less than 10 nM and the GI50 [23] was less than 10 nM. The TGI [23] was less than 10 nM, the GI50 [24] was 12400 nM and the TGI [24] was 29000 nM. The GI50 [25] was less than 10 nM, the TGI [25] was 1110 nM and the GI50 [26] was less than 10 nM. It also gave a TGI [26] of 19900 nM, a GI50 [27] of 387 nM and a TGI [27] of 1620 nM. It also gave a GI50 [28] of 4010 nM, a TGI [28] of 16300 nM and a GI50 [29] of less than 10 nM. The TGI [29] was 5390 nM, the GI50 [30] was less than 10 nM and the TGI [30] was 29.6 nM. It also gave a GI50 [31] of 18.5 nM, a TGI [31] of 16600 nM and a GI50 [32] of less than 10 nM. For the same molecule, the TGI [32] was 30600 nM, the GI50 [33] was 929 nM and the TGI [33] was 22700 nM. It also gave a GI50 [34] of 12700 nM, a TGI [34] of 44600 nM and a GI50 [35] of 4320 nM. The TGI [35] was 19200 nM, the GI50 [36] was 15600 nM and the TGI [36] was 55800 nM. For the same molecule, the GI50 [37] was less than 10 nM, the TGI [37] was 16900 nM and the GI50 [38] was 3680 nM. It also gave a TGI [38] of 18600 nM, a GI50 [39] of 18500 nM and a TGI [39] of 53200 nM. For the same molecule, the GI50 [40] was 11600 nM, the TGI [40] was 24800 nM and the GI50 [41] was 191 nM. The TGI [41] was 10400 nM, the GI50 [42] was less than 10 nM and the TGI [42] was 7630 nM. It also gave a GI50 [43] of 11500 nM, a TGI [43] of 25400 nM and a GI50 [44] of 215 nM. The TGI [44] was 10600 nM, the GI50 [45] was less than 10 nM and the TGI [45] was less than 10 nM. It also gave a GI50 [46] of less than 10 nM, a TGI [46] of 10700 nM and a GI50 [47] of 3340 nM. It also gave a TGI [47] of 21500 nM, a GI50 [48] of less than 10 nM and a TGI [48] of 17200 nM. It also gave a GI50 [49] of 783 nM, a TGI [49] of 34500 nM and a GI50 [50] of 320 nM. It also gave a TGI [50] of 17500 nM, a GI50 [51] of less than 10 nM and a TGI [51] of 11500 nM. The GI50 [52] was 1530 nM, the TGI [52] was 22600 nM and the GI50 [53] was 1140 nM. It also gave a TGI [53] of 16900 nM, a GI50 [54] of 60.3 nM and a TGI [54] of 9750 nM. It also gave a GI50 [55] of less than 10 nM, a TGI [55] of less than 10 nM and a GI50 [56] of less than 10 nM. It also gave a TGI [56] of less than 10 nM, a GI50 [57] of 181 nM and a TGI [57] of 1770 nM.

Molecule `COc1cccc2c1C(=O)c1c(O)c3c(c(O)c1C2=O)C[C@@](O)(C(C)=O)C[C@@H]3OC1CC(N)C(O)C(C)O1` (some centres not stated) has a GI50 [1] of 31 nM, a TGI [1] of 1200 nM and a GI50 [2] of 28.2 nM. It also gave a TGI [2] of 199 nM, a GI50 [3] of 36.9 nM and a TGI [3] of 170 nM. It also gave a GI50 [4] of 69.5 nM, a TGI [4] of 265 nM and a GI50 [5] of 17.9 nM. The TGI [5] was 94.7 nM, the GI50 [6] was 48.6 nM and the TGI [6] was 440 nM. For the same molecule, the TGI [7] was 16.9 nM, the GI50 [10] was 283 nM and the TGI [10] was 1650 nM. For the same molecule, the GI50 [12] was 14.6 nM, the TGI [12] was 1970 nM and the GI50 [13] was 51.7 nM. It also gave a TGI [13] of 1010 nM, a GI50 [14] of 19.4 nM and a TGI [14] of 73.8 nM. It also gave a GI50 [15] of 60 nM, a TGI [15] of 3140 nM and a GI50 [16] of 45.4 nM. For the same molecule, the TGI [16] was 234 nM, the GI50 [17] was 29.2 nM and the TGI [17] was 148 nM. For the same molecule, the GI50 [18] was 118 nM, the TGI [18] was 281 nM and the GI50 [19] was 14.6 nM. It also gave a TGI [19] of 138 nM, a GI50 [20] of 15.9 nM and a TGI [20] of 908 nM. The GI50 [21] was 19.3 nM, the TGI [21] was 135 nM and the GI50 [22] was 21.8 nM. The TGI [22] was 135 nM, the GI50 [23] was 44.5 nM and the TGI [23] was 176 nM. The GI50 [24] was 21.5 nM, the TGI [24] was 10500 nM and the GI50 [25] was 24.3 nM. It also gave a TGI [25] of 133 nM, a GI50 [26] of 103 nM and a TGI [26] of 260 nM. It also gave a GI50 [27] of 10.7 nM, a TGI [27] of 24 nM and a GI50 [29] of 33.5 nM. It also gave a TGI [29] of 282 nM, a GI50 [30] of 21.9 nM and a TGI [30] of 69.3 nM. It also gave a GI50 [31] of 152 nM, a TGI [31] of 433 nM and a TGI [33] of 90.9 nM. For the same molecule, the GI50 [34] was 1520 nM, the TGI [34] was 3390 nM and the GI50 [35] was 78.1 nM. For the same molecule, the TGI [35] was 566 nM, the GI50 [36] was 165 nM and the TGI [36] was 701 nM. The GI50 [37] was 105 nM, the TGI [37] was 325 nM and the GI50 [38] was 37 nM. The TGI [38] was 197 nM, the GI50 [39] was 85.9 nM and the TGI [39] was 282 nM. For the same molecule, the TGI [40] was 20.9 nM, the GI50 [41] was 102 nM and the TGI [41] was 237 nM. The GI50 [42] was 25.4 nM, the TGI [42] was 181 nM and the GI50 [43] was 32.1 nM. The TGI [43] was 114 nM, the GI50 [44] was 13.5 nM and the TGI [44] was 115 nM. For the same molecule, the GI50 [58] was 71 nM, the TGI [58] was 142 nM and the GI50 [45] was 103 nM. The TGI [45] was 229 nM, the GI50 [47] was 36.7 nM and the TGI [47] was 181 nM. It also gave a GI50 [48] of 24.2 nM, a TGI [48] of 160 nM and a GI50 [49] of 31.8 nM. The TGI [49] was 13100 nM, the GI50 [50] was 108 nM and the TGI [50] was 269 nM. The TGI [51] was 201 nM, the GI50 [52] was 36.8 nM and the TGI [52] was 2140 nM. The GI50 [54] was 10 nM, the TGI [54] was 1080 nM and the GI50 [55] was 90.2 nM. It also gave a TGI [55] of 216 nM, a GI50 [56] of 11.5 nM and a TGI [56] of 115 nM. For the same molecule, the GI50 [57] was 303 nM and the TGI [57] was 1470 nM.
